A short description of assay [1]: A549 cell cytotoxicity, dose response, cytotoxicity control, plate reader, dry powder, set 6 (AID 743312). In kind it is functional, cell-based.
Assay [2] can be described thus: cells. The following applies: HEK293.
A short description of assay [3]: HepG2 cell cytotoxicity, dose response, cytotoxicity control, plate reader, dry powder, set 6 (AID 743311). In kind it is functional, cell-based.
Assay [4] deals with SN12K1. The assay is described as follows: cells. In kind it is functional. The following applies: Homo sapiens.
Assay [5] addresses FAD-linked sulfhydryl oxidase ALR (Homo sapiens, UniProt P55789). As to the kind of experiment: inhibitors of human ALR sulfhydryl oxidase, dose response, biochemical, H2O2 detection, luminescence, cherry-pick (AID 493248).
In assay [6] the test system is P388. The assay is described as follows: cells. In kind it is functional. The following applies: Mus musculus.
Assay [7] in a line: HeLa 2N DNA content increase, dose response, cell-based, IC50 (AID 1117349). In kind it is functional.
The nature of assay [8]: inhibitors of firefly luciferase expression or activity, dose response, H4 neuroglioma cells, luminescence (AID 1990). The class given is functional, cell-based.
The nature of assay [9]: HeLa 4N DNA content increase, dose response, cell-based, IC50 (AID 1117351). In kind it is functional.
Assay [10] has as its system P388/ADR. The assay is described as follows: cells. In kind it is functional. The settings on record: Mus musculus.
Assay [11] in a line: Luminescence Cell-Based Dose Response HTS to Identify Inhibitors of 5'UTR Stem-Loop Driven Prion Protein mRNA Translation in H4 Neuroglioblastoma Cells. [Related pubchem assays: 1827 (Project Summary), 1813 (Primary HTS)]. The class given is functional.
Assay [12] is described as follows: inhibitors of SNCA 5'UTR-driven reporter translation, confirmation, H4 neuroglioma cells, luminescence (AID 1988). In kind it is functional, cell-based.
The target in assay [13] is Luciferin 4-monooxygenase (Photinus pyralis, UniProt P08659). As to the kind of experiment: firefly luciferase enzyme inhibitors, dose response, biochemical, luminescence (AID 1891).
Sequence of Luciferin 4-monooxygenase (P08659 whole entry): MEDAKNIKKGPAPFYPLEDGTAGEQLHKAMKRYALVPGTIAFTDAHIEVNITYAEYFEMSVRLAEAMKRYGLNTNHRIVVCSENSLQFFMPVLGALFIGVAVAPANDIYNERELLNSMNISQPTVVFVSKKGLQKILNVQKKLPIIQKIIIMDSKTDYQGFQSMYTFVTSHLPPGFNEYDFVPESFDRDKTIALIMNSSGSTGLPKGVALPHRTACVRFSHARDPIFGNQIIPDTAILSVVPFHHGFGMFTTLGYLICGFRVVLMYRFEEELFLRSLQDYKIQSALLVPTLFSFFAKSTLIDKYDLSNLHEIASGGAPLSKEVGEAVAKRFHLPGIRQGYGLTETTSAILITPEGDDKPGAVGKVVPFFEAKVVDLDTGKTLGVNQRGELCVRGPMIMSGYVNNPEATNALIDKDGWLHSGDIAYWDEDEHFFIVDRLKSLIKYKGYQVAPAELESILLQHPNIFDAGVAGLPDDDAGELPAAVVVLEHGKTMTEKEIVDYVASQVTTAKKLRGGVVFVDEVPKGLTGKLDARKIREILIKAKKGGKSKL
Assay [14] deals with Protein Tat (Human immunodeficiency virus type 1 group M subtype B (isolate HXB2)(HIV-1), UniProt P04608). The class given is functional.
Sequence of Protein Tat (P04608 whole entry): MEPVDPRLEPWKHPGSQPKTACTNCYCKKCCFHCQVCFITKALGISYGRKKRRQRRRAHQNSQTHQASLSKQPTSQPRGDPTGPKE
The target of assay [15] is Glutathione-S-transferase (Schistosoma japonicum, UniProt Q26513). The assay is described as follows: biotin-GST/anti-GST TR-FRET signal inhibitors, dose response, artefact control for Vif-APOBEC3G degradation inhibitor project, biochemical (AID 1117362). In kind it is functional.
Sequence of Glutathione-S-transferase (Q26513 whole entry): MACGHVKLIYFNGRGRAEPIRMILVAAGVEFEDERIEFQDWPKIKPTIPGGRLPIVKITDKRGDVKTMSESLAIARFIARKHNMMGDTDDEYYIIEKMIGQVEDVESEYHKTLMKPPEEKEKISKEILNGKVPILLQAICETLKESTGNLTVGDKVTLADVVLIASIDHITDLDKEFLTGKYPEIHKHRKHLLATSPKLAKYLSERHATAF
The nature of assay [16]: Luminescence Cell-Based Dose Confirmation HTS to Identify Inhibitors of Platelet Dense Granule Release. [Related pubchem assays: 1663 (Primary HTS), 1678 (Summary of Project)]. In kind it is functional.
The nature of assay [17]: A375 melanoma cell viability loss, dose response, counter-screen for MITF modulator project, CellTiter-Glo luminescence, dry powder, set 9 (AID 651591). In kind it is functional, cell-based. The following applies: A-375. On the technique in general: A counterscreen serves to expose hits that act by an unwanted route or on another target.
The nature of assay [18]: A375 melanoma cell cytotoxicity, dose response, counter-screen for MITF inhibitor project, CellTiter-Glo luminescence, dry powder, set 6 (AID 624488). The class given is functional, cell-based. The settings on record: A-375.
Assay [19] can be described thus: A375 melanoma cell viability loss, dose response, counter-screen for MITF inhibitor project, CellTiter-Glo luminescence, dry powder, set 4 (AID 624364).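 Also: A375 melanoma cells are MITF independent so this is a counter screen.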 The class given is functional, cell-based. The following applies: A-375.
Assay [20] is described as follows: MITF Orthogonal Assay: SK-MEL-5 CTG Assay Measured in Cell-Based System Using Plate Reader - 2084-02_Inhibitor_Dose_DryPowder_Activity_Set5. In kind it is functional.
Assay [21] in a line: A375 melanoma cell cytotoxicity, dose response, counter-screen for MITF inhibitor project, CellTiter-Glo luminescence, dry powder, set 2 (AID 624489).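 Also: actives are compounds lowering A375 viability meaning general cytotoxicity.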 The class given is functional, cell-based. The following applies: A-375.
Assay [22] can be described thus: TRPM1 promoter luciferase reporter signal decrease, dose response, MITF inhibitor project, cell-based, SK-MEL-5, dry powder, set 9 (AID 651588). The class given is functional. (In a reporter assay the amount or activity of a reporter protein is the signal.)
Assay [23] in a line: MITF Measured in Cell-Based System Using Plate Reader - 2084-01_Inhibitor_Dose_DryPowder_Activity_Set6. The class given is functional.
Assay [24] is described as follows: MITF Measured in Cell-Based System Using Plate Reader - 2084-01_Inhibitor_Dose_DryPowder_Activity_Set7. In kind it is functional.
A short description of assay [25]: MALME3 melanoma cell viability reduction, dose response, orthogonal assay for MITF inhibitor project, CellTiter-Glo luminescence, dry powder, set 5 (AID 651584). In kind it is functional, cell-based. The following applies: MALME-3.
A short description of assay [26]: SK-MEL-5 parental cell viability reduction, dose response, orthogonal assay for MITF inhibitor project, CellTiter-Glo luminescence, dry powder, set 8 (AID 651586). The class given is functional, cell-based. Background: In ATP-based viability assays light output follows the ATP content of the culture.
The nature of assay [27]: SK-MEL-5 parental line viability, dose response, MITF inhibitor project, cell-based, CellTiter-Glo, dry powder, set 6 (AID 624429). The class given is functional.
A short description of assay [28]: MITF Orthogonal Assay: MALME3 CTG Assay Measured in Cell-Based System Using Plate Reader - 2084-04_Inhibitor_Dose_DryPowder_Activity_Set6. The class given is functional. The settings on record: MALME-3.
Assay [29] is described as follows: A375 melanoma cell cytotoxicity, dose response, counter-screen for MITF inhibitor project, CellTiter-Glo luminescence, dry powder, set 7 (AID 624490). In kind it is functional, cell-based. The settings on record: A-375.
Assay [30] can be described thus: P. falciparum Dd2 growth inhibitors, dose response, SYBR Green, dry powder samples, set 4 (AID 1159572). The class given is functional, cell-based.
A short description of assay [31]: P. falciparum Dd2 growth inhibitors, dose response, SYBR Green, dry powder samples, set 9 (AID 1159568). In kind it is functional, cell-based.
Assay [32] in a line: Late-stage results from the probe development effort to identify antagonists of arginine vasopressin receptor 1a (AVPR1a): fluorescence-based cell-based dose response AVPR1a inhibition assay. The class given is functional.
For assay [33], the target named is Vasopressin V1b receptor (Homo sapiens, UniProt P47901). The assay is described as follows: Late-stage results from the probe development effort to identify antagonists of arginine vasopressin receptor 1a (AVPR1a): fluorescence-based cell-based dose response AVPR1b inhibition counterscreen assay. In kind it is functional.
Sequence of Vasopressin V1b receptor (P47901 whole entry): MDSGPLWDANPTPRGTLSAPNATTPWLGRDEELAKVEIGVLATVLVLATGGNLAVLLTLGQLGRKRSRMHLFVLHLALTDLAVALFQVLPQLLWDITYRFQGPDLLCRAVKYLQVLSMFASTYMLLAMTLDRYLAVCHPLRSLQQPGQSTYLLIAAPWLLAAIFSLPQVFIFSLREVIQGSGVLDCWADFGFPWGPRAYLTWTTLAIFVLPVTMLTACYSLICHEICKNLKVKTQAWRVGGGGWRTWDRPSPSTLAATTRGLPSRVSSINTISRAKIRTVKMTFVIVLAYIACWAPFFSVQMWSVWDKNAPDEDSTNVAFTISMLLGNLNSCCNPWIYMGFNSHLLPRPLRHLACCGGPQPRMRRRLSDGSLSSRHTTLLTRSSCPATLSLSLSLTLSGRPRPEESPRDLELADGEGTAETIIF
Assay [34] in a line: Late-stage results from the probe development effort to identify antagonists of arginine vasopressin receptor 1a (AVPR1a): fluorescence-based cell-based dose response OXTR inhibition counterscreen assay. In kind it is functional.
Assay [35] concerns the target Vasopressin V2 receptor (Homo sapiens, UniProt P30518). The assay is described as follows: Late-stage results from the probe development effort to identify antagonists of arginine vasopressin receptor 1a (AVPR1a): fluorescence-based cell-based dose response AVPR2 inhibition counterscreen assay. The class given is functional.

One may read the AC50 as the concentration giving half of the maximal activity seen. What is called GI50 is the concentration at which growth is held to half of that of the control. A word on the IC50: it is the concentration that gives 50% inhibition. As usually defined, the EC50 is the concentration giving half of the maximal effect.

Calls of active or inactive are those of the source.

Sequence of Vasopressin V2 receptor (P30518 whole entry): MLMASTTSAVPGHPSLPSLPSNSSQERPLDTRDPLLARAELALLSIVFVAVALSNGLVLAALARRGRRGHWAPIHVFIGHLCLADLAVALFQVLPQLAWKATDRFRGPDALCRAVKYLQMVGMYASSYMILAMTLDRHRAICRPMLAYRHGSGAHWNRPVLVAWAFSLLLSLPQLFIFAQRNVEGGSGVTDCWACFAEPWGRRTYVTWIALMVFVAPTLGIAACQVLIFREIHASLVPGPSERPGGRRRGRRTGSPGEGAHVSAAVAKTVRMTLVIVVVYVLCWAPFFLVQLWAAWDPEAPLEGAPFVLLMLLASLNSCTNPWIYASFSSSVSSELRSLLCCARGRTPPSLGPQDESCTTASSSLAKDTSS
Sequence of FAD-linked sulfhydryl oxidase ALR (P55789 whole entry): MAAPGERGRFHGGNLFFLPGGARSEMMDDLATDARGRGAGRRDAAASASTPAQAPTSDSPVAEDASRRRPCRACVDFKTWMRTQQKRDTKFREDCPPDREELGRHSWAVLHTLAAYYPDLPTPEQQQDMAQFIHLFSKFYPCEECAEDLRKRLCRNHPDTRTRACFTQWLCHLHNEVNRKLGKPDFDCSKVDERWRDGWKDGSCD

As for `Cc1cc2ncn(CCOc3ccccc3C)c2cc1C`, the AC50 in assay [1] was 11.4 µM (active); in [2], 47.4 µM (active); in assay [3], 36.5 µM (active).

Turning to `O=C(O)CCCc1ccc(N(CCCl)CCCl)cc1` [CHLORAMBUCIL], the GI50 in [4] was 49.5 µM (inactive); in assay [6] it was 3.73 µM (inactive); in [10], 6.25 µM (inactive). In addition, the AC50 in assay [5] is < 0.005 µM (active). For the same molecule, the IC50 in assay [7] and in assay [9] was > 10 µM (inactive) throughout. Moreover, the EC50 in [8] is > 120 µM (not active); in assay [11], > 120 µM (not active); in assay [12] it was 32.6 µM (active).

In the case of `O=C(NC(=S)N1CCCc2ccccc21)c1ccccc1`, the EC50 in assay [13] and in assay [16] was > 112 µM (not active) throughout. For the same molecule, the concentration for half-maximal inhibition (IC50) was > 100 µM (active) in [14] and 90.8 µM (active) in assay [15].

On to `CN1CCN(C2=C(NS(=O)(=O)c3ccc(Br)s3)C(=O)c3ccccc3C2=O)CC1`, for which the AC50 in assay [17] was > 70 µM (inactive); in [18], 26.3 µM (active); in [19], 65 µM (active); in assay [20], 11.2 µM (active); in assay [21], 47.4 µM (active); in assay [22], 8.02 µM (active). Moreover, the AC50 in assay [23] is 1.94 µM (active); in [24], 2.26 µM (active); in [25] it was 12 µM (active); in assay [26], 36.8 µM (active); in assay [27], 64.7 µM (active); in [28] it was 12 µM (active). Further, the AC50 in assay [29] is > 70 µM (inactive).

For `CCC(=O)N1CC2(CCN(C(=O)Nc3ccccc3F)CC2)c2c([nH]c3cc(OC)ccc23)[C@@H]1CO`, the half-maximal activity concentration (AC50) in assay [30] is 0.294 µM (active); in assay [31], 0.561 µM (active).

For the molecule `N#Cc1ccnc(N2CCC(C(=O)N(CC3CC3)c3ccc(Cl)cc3)CC2)c1`, the IC50 in [32] was 0.0628 µM (active); in [33] it was > 50 µM (inactive); in [34], 4.6 µM (active); in assay [35] it was > 50 µM (inactive).

The record behind these values is ChEMBL document CHEMBL1201862, “PubChem BioAssay data set” (2004).
